For the assay, the system named is SVR cells. Briefly: SVR cell assay: cell numbers counted at 48 hours, percent inhibition versus control. The conditions noted are these: 10,000 SVR cells in 24 well dish, counted at 48 hours; for inhibition at 1 µg/mL / Percent Inhibition at a Specified Density (μg/ml): 1: 1 μg/ml; for inhibition at 1 µg/mL: read-out: Percent Inhibition at a Specified Density (μg/ml): 1; for inhibition at 3 µg/mL / Percent Inhibition at a Specified Density (μg/ml): 3: 3 μg/ml; for inhibition at 3 µg/mL: read-out: Percent Inhibition at a Specified Density (μg/ml): 3; for inhibition at 6 µg/mL / Percent Inhibition at a Specified Density (μg/ml): 6: 6 μg/ml; for inhibition at 6 µg/mL: read-out: Percent Inhibition at a Specified Density (μg/ml): 6. The assay is classed as cell-based, murine.

Description: In the case of testing the anti-angiogenic/anti-cancer activity of compounds according to the present invention, an assay based on SVR cells may be employed. […] The cell numbers are counted and compared against controls. Percent inhibition is readily determined from the data obtained.
10,000 SVR cells were seeded in a 24 well dish [Arbiser, et al., J. Am. […] The cell numbers were counted at 48 hours.

On to `COc1cccc(OC)c1C(=O)/C=C/c1ccccc1` [Compound 38, 2′,6′-Dimethoxychalcone], for which, where the note is “Mus musculus”, the inhibition at 1 µg/mL was determined as 25.8%, the inhibition at 3 µg/mL is 39.8% and the inhibition at 6 µg/mL amounted to 63.5%.
On to `O=C(C=Cc1ccc[nH]1)c1ccccc1` [Compound 50, 1-Phenyl-3-(2-pyrrolyl)propenone], for which the “Percent Inhibition at a Specified Density (μg/ml): 1” value (from here on “Percent Inhibition … 1”) came to 19.0%, the “Percent Inhibition at a Specified Density (μg/ml): 3” value (from here on “Percent Inhibition … 3”) was 21.5% and the “Percent Inhibition at a Specified Density (μg/ml): 6” value (“Percent Inhibition … 6” below) is recorded as 0.0%.
Take `O=C(C=Cc1ccccc1)c1cccc2ccccc12` [Compound 58, 1-(1-Naphthyl)-3-phenylpropenone]: the “Percent Inhibition … 1” value came out at 10.9%, the “Percent Inhibition … 3” value is 33.2% and the “Percent Inhibition … 6” value was found to be 68.0%.
With `O=c1ccoc2ccccc12` [Compound 15, Chromone, reference compound], where the note is “Mus musculus”, the inhibition at 1 µg/mL amounted to 20.6%, the inhibition at 3 µg/mL is 8.2% and the inhibition at 6 µg/mL was found to be 20.8%.
In the same order, the values of `O=C1C(=C2C=CC=CN2)CCCC1=C1C=CC=CN1` [Compound 79, 2,6-Di(2-pyridylidene)cyclohexanone] are 88.3%, 92.9% and 96.7%.
On to `O=C(C=Cc1ccc2ccccc2c1)c1c2ccccc2cc2ccccc12` [Compound 54, 1-(9-Anthryl)-3-(2-naphthyl)propenone], for which the “Percent Inhibition … 1” value was 52.5%, the “Percent Inhibition … 3” value is reported as 57.3% and the “Percent Inhibition … 6” value came out at 48.1%.
On the same counts, the results for `O=C(C=Cc1ccccc1)c1ccc[nH]1` [Compound 49, 3-Phenyl-1-(2-pyrrolyl)propenone] are 8.3%, 11.4% and 19.4%.
For `O=C1CCCCC1=Cc1ccccc1` [Compound 7, 2-(Benzylidene)cyclohexanone], for the setting “Mus musculus”, the inhibition at 1 µg/mL was determined as 23%, the inhibition at 3 µg/mL stood at 29.5% and the inhibition at 6 µg/mL stood at 72.4%.
On to `O=C(/C=C/c1c(F)cccc1Cl)/C=C/c1c(F)cccc1Cl` [Compound 72, 1,5-Di(2-chloro-6-fluorophenyl)-1E,4E-pentadien-3-one], for which, under “Mus musculus”, the inhibition at 1 µg/mL came out at 57%, the inhibition at 3 µg/mL stood at 70.6% and the inhibition at 6 µg/mL is 86.6%.
In the same order, the values of `O=C1C(=Cc2ccccc2)COc2ccccc21` [Compound 66, 3-Benzylidene-4-chromanone] are 12.3%, 23.8% and 54.3%.
In the case of `O=C(/C=C/c1ccccc1)/C=C/c1ccccc1` [Compound 3, 1,5-Diphenyl-1E,4E-pentadien-3-one], under “Mus musculus”, the inhibition at 1 µg/mL is 79.3%, the inhibition at 3 µg/mL was 96.8% and the inhibition at 6 µg/mL worked out at 96.8%.
With `O=C(C=Cc1ccccn1)c1ccccn1` [Compound 46, 1,3-Di(2-pyridyl)propenone], the “Percent Inhibition … 1” value was 0.0%, the “Percent Inhibition … 3” value is reported as 53.4% and the “Percent Inhibition … 6” value amounted to 85.2%.
As for `O=C(C=Cc1ccc2ccccc2c1)c1ccc2ccccc2c1` [Compound 60, 1,3-Di(2-naphthyl)propenone], the “Percent Inhibition … 3” value is on record as 13.2% and the “Percent Inhibition … 6” value was 20.3%. The “Percent Inhibition at a Specified Density (μg/ml): 9” value (9 μg/ml) is on record as 27.1%.
With `COc1ccc(/C=C/C(=O)c2ccc(OC)cc2)cc1` [Compound 2, 4,4′-Dimethoxychalcone], for the setting “Mus musculus”, the inhibition at 1 µg/mL was 29.1%, the inhibition at 3 µg/mL was 63.4% and the inhibition at 6 µg/mL was 85.2%.
On to `O=C1C(=Cc2c(Cl)cccc2Cl)CCCC1=Cc1c(Cl)cccc1Cl` [Compound 76, 2,6-Bis(2,6-dichlorobenzylidene)cyclohexanone], for which, where the note is “Mus musculus”, the inhibition at 1 µg/mL was 8.4%, the inhibition at 3 µg/mL turned out to be 29.8% and the inhibition at 6 µg/mL was 27.1%.
Turning to `O=C(C=Cc1c(Cl)cccc1Cl)c1ccc2ccccc2c1` [Compound 59, 3-(2,6-Dichlorophenyl)-1-(2-naphthyl)propenone], the “Percent Inhibition … 3” value is on record as 81.0% and the “Percent Inhibition … 6” value came to 97.4%. For the same compound, the “Percent Inhibition at a Specified Density (μg/ml): 9” value (9 μg/ml) turned out to be 98.3%.
As for `O=C(/C=C/c1ccccc1)c1cccc(C(F)(F)F)c1` [Compound 18, 3′-(Trifluoromethyl)chalcone], under “Mus musculus”, the inhibition at 1 µg/mL was 42.2%, the inhibition at 3 µg/mL amounted to 87.4% and the inhibition at 6 µg/mL came to 96.9%.
Consider `O=C1C(=Cc2c(Cl)cccc2Cl)CCc2ccccc21` [Compound 69, 2-(2,6-Dichlorobenzylidene)tetralone], for which the “Percent Inhibition … 1” value came to 32.8%, the “Percent Inhibition … 3” value amounted to 37.0% and the “Percent Inhibition … 6” value turned out to be 53.7%.
For the compound `O=C(/C=C/c1ccccc1)c1c(F)c(F)c(F)c(F)c1F` [Compound 36, 2′,3′,4′,5′,6′-Pentafluorochalcone], where the note is “Mus musculus”, the inhibition at 1 µg/mL is 6.6%, the inhibition at 3 µg/mL came to 55.6% and the inhibition at 6 µg/mL turned out to be 88.7%.
In the same order, the values of `COc1cccc(OC)c1/C=C/C(=O)c1ccccc1` [Compound 39, 2,6-Dimethoxychalcone] are 31.8%, 56.4% and 60.8%.
In the same order, the values of `Cc1ccc(C(=O)/C=C/c2ccccc2)c(C)c1` [Compound 22, 2′,4′-Dimethylchalcone] are 41.7%, 80.4% and 87.2%.
In the same order, the values of `O=C(O)Cc1ccc(C(=O)/C=C/c2ccccc2)cc1` [Compound 17, 4′-Carboxymethylchalcone] are 13.7%, 3.8% and 29.7%.
Consider `Cc1ccc(C(=O)/C=C/c2ccc(OCc3ccccc3)cc2)cc1` [Compound 24, 4-Benzyloxy-4′-methylchalcone], for which, where the note is “Mus musculus”, the inhibition at 1 µg/mL came out at 18.4%, the inhibition at 3 µg/mL stood at 5.1% and the inhibition at 6 µg/mL is 17%.
As to `O=C(C=Cc1c2ccccc2cc2ccccc12)c1ccccc1` [Compound 52, 3-(9-Anthryl)-1-phenylpropenone], the “Percent Inhibition … 1” value is given as 54.6%, the “Percent Inhibition … 3” value is listed as 53.5% and the “Percent Inhibition … 6” value is listed as 71.3%.
On to `O=C(C=Cc1ccccn1)c1ccccc1` [Compound 47, 1-Phenyl-3-(2-pyridyl)propenone], for which the “Percent Inhibition … 1” value is listed as 40.7%, the “Percent Inhibition … 3” value stood at 89.1% and the “Percent Inhibition … 6” value is reported as 96.9%.
Turning to `O=C(O)/C=C/c1ccccc1` [Compound 10, trans-Cinnamic Acid, reference compound], under “Mus musculus”, the inhibition at 1 µg/mL stood at 18.6%, the inhibition at 3 µg/mL was 14.1% and the inhibition at 6 µg/mL is 69.6%.
For the compound `O=C1C(=Cc2ccccc2)C(=O)c2ccccc21` [Compound 8, 2-(Benzylidene)-1,3-indanedione], where the note is “Mus musculus”, the inhibition at 1 µg/mL is 91.1%, the inhibition at 3 µg/mL was 14% and the inhibition at 6 µg/mL amounted to 34%.
In the same order, the values of `CC(=O)C(=Cc1ccccc1)C(C)=O` [Compound 9, 3-Benzylidene-2,4-pentanedione] are 48.3%, 72% and 82.7%.
As for `COc1cccc(OC)c1/C=C/C(=O)c1c(OC)cccc1OC` [Compound 37, 2,2′,6,6′-Tetramethoxychalcone], under “Mus musculus”, the inhibition at 1 µg/mL came out at 36.2%, the inhibition at 3 µg/mL turned out to be 49.2% and the inhibition at 6 µg/mL stood at 39.2%.
On to `O=C(/C=C/c1c(Cl)cccc1Cl)c1c(Cl)cccc1Cl` [Compound 32, 2,2′,6,6′-Tetrachlorochalcone], for which, for the setting “Mus musculus”, the inhibition at 3 µg/mL was determined as 74.9% and the inhibition at 6 µg/mL was 97%. Moreover, the inhibition at 9 µg/mL (Mus musculus, 9 μg/ml, read-out: Percent Inhibition at a Specified Density (μg/ml): 9) turned out to be 98.1%.
Consider `O=C(/C=C/c1ccc(Cl)cc1)c1ccc(Cl)cc1` [Compound 19, 4,4′-Dichlorochalcone], for which, where the note is “Mus musculus”, the inhibition at 1 µg/mL worked out at 13.8%, the inhibition at 3 µg/mL amounted to 11.7% and the inhibition at 6 µg/mL stood at 31.1%.
For `O=C(/C=C/c1ccccc1)c1c(Cl)cccc1Cl` [Compound 33, 2′,6′-Dichlorochalcone], under “Mus musculus”, the inhibition at 1 µg/mL amounted to 2.23%, the inhibition at 3 µg/mL came to 51.1% and the inhibition at 6 µg/mL is 88.7%.
On to `O=C1C(=Cc2ccccc2)CCC1=Cc1ccccc1` [Compound 4, 2,5-(Dibenzylidene)cyclopentanone], for which the “Percent Inhibition … 1” value was 19.6%, the “Percent Inhibition … 3” value is on record as 23.8% and the “Percent Inhibition … 6” value was determined as 38.6%.
As for `O=C(C=Cc1ccccc1)c1c2ccccc2cc2ccccc12` [Compound 51, 1-(9-Anthryl)-3-phenylpropenone], the “Percent Inhibition … 1” value is recorded as 25.5%, the “Percent Inhibition … 3” value came out at 46.4% and the “Percent Inhibition … 6” value was found to be 69.0%.
With `O=C(C=Cc1cccc2ccccc12)c1ccc2ccccc2c1` [Compound 63, 1-(2-Naphthyl)-3-(1-naphthyl)propenone], the “Percent Inhibition … 1” value was 0.0%, the “Percent Inhibition … 3” value is reported as 24.9% and the “Percent Inhibition … 6” value is 50.3%.

(Values after US7432303B2, “Chalcone and its analogs as agents for the inhibition of angiogenesis and related disease states” (James and Emory University, priority 1999, dated 2008).)
